The source of these data is US4983613A, “Isoquinoline acetic acids and acetyl carbamates useful as aldose reductase inhibitors” (American Home Products Corporation, priority 1989, dated 1991).

What is called inhibition is how much of the control response was suppressed.

Structures are written as SMILES.

The subject of experiment [1] is dulcitol accumulation in sciatic nerve. Nature of the experiment: in vivo lowering of dulcitol accumulation in sciatic nerve of galactosemic rats. Further details: species or system rat (Sprague-Dawley). The following applies: in diet, four days. An excerpt:
(§1) The aldose reductase inhibiting property of the compounds of this invention and the utilization of the compounds in preventing, diminishing and alleviating diabetic complications are demonstrable in experiments using galactosemic rats, see Dvornik et al., Science, 182, 1146 (1973). Such experiments are exemplified hereinbelow after the listing of the following general comments pertaining to these experiments:
(§2) (a) Four or more groups of six male rats, 50-70 g, Sprague-Dawley strain, were used. The first group, the control group, was fed a mixture of laboratory chow (Rodent Laboratory Chow, Purina) and glucose at 20% (w/w %) concentration. The untreated galactosemic group was fed a similar diet in which galactose is substituted for glucose. The third group was fed a diet prepared by mixing a given amount of the test compound with the galactose containing diet. The concentration of the galactose in the diet of the treated groups was the same as that for the untreated galactosemic group.
(§3) (b) After four days, the animals were killed by euthanization. The lenses were removed from the eyes and weighed. The sciatic nerves were dissected as completely as possible and weighed. Both tissues when frozen can be kept up to two weeks before being analyzed for dulcitol.
(§4) (c) The polyol determination was performed by a modification of the procedure of M. Kraml and L. Cosyns, Clin. Biochem., 2,373 (1969). Only two minor reagent changes were made: (a) The rinsing mixture was an aqueous 5% (w/v) trichloroacetic acid solution and (b) the stock solution was prepared by dissolving 25 mg of dulcitol in 100 ml of an aqueous trichloroacetic acid solution. [N.B.: For each experiment the average value found in the tissue from rats fed the glucose diet was subtracted from the individual values found in the corresponding tissue in galactose-fed rats to obtain the amount of polyol accumulated.] The aldose reductase inhibiting effects of the compounds of formula (I) were also tested by employing an in vitro testing procedure similar to that described by S. Hayman and J. H. Kinoshita, J. Biol. Chem., 240,877 (1965). In the present case the procedure of Hayman and Kinoshita was modified in that the final chromatography step was omitted in the preparation of the enzyme from bovine lens.
The figures under L and N represent the percentage decrease of dulcitol accumulation in the tissues of the lens and sciatic nerve, respectively, for treated rats as compared to untreated rats.

The next experiment deals with T1, aldose reductase (Bos taurus, UniProt P16116).
T1 construct: in the preparation of the enzyme from bovine lens; from tissue; host or cells: bovine lens
Description: in vitro inhibition of aldose reductase (modified Hayman and Kinoshita procedure, enzyme from bovine lens). Type of experiment: biochemical. The following applies: for inhibition at 10 µM: 10^-5 M; for inhibition at 1 µM: 10^-6 M; for inhibition at 0.04 µM: 4 × 10^-8 M; for inhibition at 0.1 µM: 10^-7 M. The protocol:
as §4, with “lens. […] The figures under L and N represent the percentage decrease of dulcitol accumulation in the tissues of the lens and sciatic nerve, respectively, for treated rats as compared to untreated rats.” for “lens.”

Experiment [2] concerns dulcitol accumulation in lens. Description: in vivo lowering of dulcitol accumulation in lens of galactosemic rats. On the set-up: species or system rat (Sprague-Dawley). The note with it: in diet, four days.
Description: as §1, §2, §3
(c) The polyol determination was performed by a modification of the procedure of M. Kraml and L. Cosyns, Clin. Biochem., 2,373 (1969). Only two minor reagent changes were made: (a) The rinsing mixture was an aqueous 5% (w/v) trichloroacetic acid solution and (b) the stock solution was prepared by dissolving 25 mg of dulcitol in 100 ml of an aqueous trichloroacetic acid solution. [N.B.: For each experiment the average value found in the tissue from rats fed the glucose diet was subtracted from the individual values found in the corresponding tissue in galactose-fed rats to obtain the amount of polyol accumulated.] […]

Regarding `COC(=O)NC(=O)CC1C(=O)N(Cc2ccc(Br)cc2F)C(=O)c2ccc(F)cc21` (stereo not shown) [[[2-[(4-Bromo-2-fluorophenyl)methyl]-6-fluoro-1,2,3,4-tetrahydro-1,3-dioxo-4-isoquinolinyl]acetyl]carbamic Acid Methyl Ester], the “% Lowering Ducitol Accumulation In vivo, Nerve” value in experiment [1] (26 mg/kg) is given as 78%. For the same compound, on aldose reductase, the inhibition at 10 µM was found to be 55% and testing at 1 µM gave an inhibition of 18%.
Consider `O=C(O)CC1C(=O)N(Cc2ccc(Br)cc2F)C(=O)c2ccc(F)cc21` (stereo not shown) [2-[(4-Bromo-2-fluorophenyl)methyl]-6-fluoro-1,2,3,4-tetrahydro-1,3-dioxo-4-isoquinolineacetic Acid], for which, in experiment [1] (25 mg/kg), the “% Lowering Ducitol Accumulation In vivo, Nerve” value is 47%. On aldose reductase, this compound showed an inhibition at 0.04 µM of 80%, an inhibition at 10 µM of 96%, an inhibition at 1 µM of 91% and an inhibition at 0.1 µM of 86%.
On to `O=C(O)CC1C(=O)N(Cc2ccc(Br)cc2F)C(=O)c2ccccc21` (stereo not shown) [2-[(4-Bromo-2-fluorophenyl)methyl]-1,2,3,4-tetrahydro-1,3-dioxo-4-isoquinolineacetic Acid], for which, at aldose reductase, the inhibition at 0.04 µM came out at 50%, the inhibition at 10 µM is 94%, the inhibition at 1 µM was determined as 91% and the inhibition at 0.1 µM came to 88%.
For the compound `COC(=O)NC(=O)CC1C(=O)N(C)C(=O)c2cc(Cl)ccc21` (stereo not shown) [7Cl, CH3, NHCO2 CH3, [(7-chloro-1,2,3,4-tetrahydro-2-methyl-1,3-dioxo-4-isoquinolinyl)acetyl]carbamic acid methyl ester], the “% Lowering Ducitol Accumulation In vivo, Nerve” value in experiment [1] (24.3 mg/kg) turned out to be 28%. At aldose reductase, this compound yielded an inhibition at 10 µM of 50% and an inhibition at 1 µM of 17%.
Consider `COC(=O)NC(=O)CC1C(=O)N(C)C(=O)c2ccccc21` (stereo not shown) [H, H, CH3, NHCO2 CH3, [(1,2,3,4-Tetrahydro-2-methyl-1,3-dioxo-4-isoquinolinyl)acetyl]carbamic Acid Methyl Ester], for which the “% Lowering Ducitol Accumulation In vivo, Nerve” value in experiment [1] (26.8 mg/kg) is given as 21.2%; in experiment [1] (85.0 mg/kg), 58.6%. In addition, the “% Lowering Ducitol Accumulation In vivo, Lens” value in experiment [2] (85.0 mg/kg) came to 37.2%. At aldose reductase, the inhibition at 10 µM came out at 61%. For the same compound, the “% Inhibition in vitro” value at aldose reductase (10^- M (exponent not given)) is on record as 11%.
Take `COC(=O)NC(=O)CC1C(=O)N(C)C(=O)c2ccc(Cl)cc21` (stereo not shown) [6Cl, H, CH3, NHCO2 CH3, [(6-chloro-1,2,3,4-tetrahydro-2-methyl-1,3-dioxo-4-isoquinolinyl)acetyl]carbamic acid methyl ester]: the “% Lowering Ducitol Accumulation In vivo, Nerve” value in experiment [1] (25 mg/kg) is listed as 53%; in experiment [1] (86.1 mg/kg) it was 81%. The “% Lowering Ducitol Accumulation In vivo, Lens” value in experiment [2] (25 mg/kg) is listed as 24%; in experiment [2] (86.1 mg/kg), 55%. Besides, the inhibition at 10 µM at aldose reductase is 64.5%. Moreover, the inhibition at 1 µM against aldose reductase amounted to 26.6%.
`CCOC(=O)NC(=O)CC1C(=O)N(C)C(=O)c2ccc(Cl)cc21` (stereo not shown) [-6Cl, H, CH3, NHCO2 C2 H5, [(6-chloro-1,2,3,4-tetrahydro-2-methyl-1,3-dioxo-4-isoquinolinyl)acetyl]carbamic acid ethyl ester]: the “% Lowering Ducitol Accumulation In vivo, Nerve” value in experiment [1] (24.5 mg/kg) is recorded as 34%. For the same compound, at 10 µM the inhibition on aldose reductase was 14.5%.
